Patent publication US12083231B2, “Starch-based double-loaded functional nano particle as well as preparation method and application” (Hefei University of Technology, priority 2021, dated 2024)

Assay: Retention rate of quercetin and anthocyanin during storage for 14 days
Assay type: physicochemical
Details: after being stored for 14 days; nanoparticle with EHT:carboxymethyl dextrin mass ratio 1:1
From the text: It can be seen from FIG. 8 that quercetin and anthocyanin alone are easy to degrade in the environment, and only about 20% of quercetin and anthocyanin can be retained after being stored for 14 days. […] The significant increase of retention rate proves that the starch-based double-loaded functional colloid nanoparticle can effectively protect quercetin and anthocyanin from being degraded.

retention rate of quercetin | retention rate of anthocyanin | Compound
about 20% | – | O=c1c(O)c(-c2ccc(O)c(O)c2)oc2cc(O)cc(O)c12 [quercetin]
– | about 20% | anthocyanin
